# pIC50: −log10 of the molar value. Counter-ions that a name gives are not always drawn.
# What was measured:
# [1] = tested on: platelet aggregation induced by PAF; test: Anti-PAF activity: inhibition of platelet aggregation induced by PAF in platelet rich plasma; assay type: cell-based, rabbit; conditions: Oryctolagus cuniculus, PAF 10 nM, test compound concentration 30 μM, read-out: Inhibitory rate
# Method: Anti-PAF activity of purine derivatives of the present invention was evaluated in the inhibition of platelet aggregation induced by PAF (platelet activation factor).
# In the present evaluation, blood was drawn from rabbit and 9 volumes of the blood was added with 1 volume of 3.8% sodium citrate solution, centrifuged at 2,000 rpm for 3 min. to give platelet rich plasma (PRP). In a platelet aggregation determination apparatus, 200 μl of the PRP solution and 25 μl of a solution prepared from a predetermined amount of the test compound were mixed and incubated for 2 min. The incubated mixture was added with 25 μl of a solution containing a predetermined amount of PAF to cause platelet aggregation induced by PAF in the test solution. A concentration of PAF was 10 nM in the test solution. The inhibitory rate against platelet aggregation induced by PAF was calculated from the changes of transmission accompanied by the platelet aggregation.
# Various concentrations of the test compounds in the test solution were selected to investigate the relationship between the concentration and the inhibitory rate for the evaluation of inhibitory rate of platelet aggregation induced by PAF. […] The inhibitory rate for the positive control compound, CV-3988 (rac-3-(N-n-octadecylcarbamoyl)-2-methoxypropyl-2-thiazolium ethyl phosphate) is also shown in Table 4.
# [2] = Scavenging of active oxygen / inhibitory effect against lipid peroxidation (oxidation of linolenic acid to conjugated diene by hydroxy radical, Fenton reaction); assay type: biochemical; conditions: linolenic acid 1.0 mM, absorbance at 234 nm
# Method: The inhibitory effect against oxidation of linolenic acid to conjugated diene due to hydroxy radical (. OH) formed by Fenton reaction was determined according to the method of Kharasch et al. (see J. Biol. Chem., 2.60, 10,645 (1985)). A predetermined concentration of FeCl2 solution was added to a mixture of water and DMSO containing predetermined amount of linolenic acid, NaCl, H2 O2, Lubrol and the rest compound to start the reaction. […] Then, the changes of absorbance at 234 nm due to the formation of conjugated diene in the reaction solutions were determined periodically. The inhibitory rate (%) was estimated from the differences between the test solutions and corresponding solutions without the test compound. When the difference of said reaction rate was 0 (zero), then the inhibitory rate was made 0%, and when the reaction rate was 0 (zero), then the inhibitory rate was made 100%.
# The inhibitory rate was estimated for various concentrations of said test compounds and the 50%-inhibitory concentration (IC50) was regressively calculated. The preventive effect against lipid peroxidation was evaluated using IC50.
# [3] = tested on: TXA2 synthesis (crude TXA2 synthetase); test: Inhibition of TXA2 synthesis (crude TXA2 synthetase, labeled arachidonic acid, RIA); assay type: biochemical, human; conditions: for pIC50: TXA2 formation, 37° C., 10 min
# Method: Inhibitory effect against TXA2 synthesis was evaluated by the method shown below determining the formation of TXA2 as an arachidonic acid metabolite in the presence of purine derivatives of the present invention.
# TXA2 (thromboxane A2) is reported to be synthesized by TXA2 synthetase in arachidonic acid cascade via a cyclic peroxide (PGH2) formed by cyclooxygenase system. Crude TXA2 synthetase was prepared by the following method in the present invention. Blood drawn from healthy volunteer was centrifuged at 200 G for 15 min. and the resulting supernatant was further centrifuged at 2,000 G for 10 min. to give precipitates. The precipitates were homogenized in 0.01M phosphate buffer and centrifuged at 1,000 G for 10 min. to give a supernatant. The resultant supernatant was used as a crude TXA2 synthetase in the following processes. […] The reaction solution was incubated at 37° C. for 10 min. and TXA2 formed in the reaction mixture was determined by RIA method using a commercially available kit (Amersham Co., Ltd., RIA kit). The inhibitory rate was calculated from the difference between the determined amount of formed TXA2 and that carried out in the absence of the test compound. When the difference of formed amount of TXA2 was 0 (zero), then the inhibitory rate was made 0% and when the formation of TXA2 was equal to that of solvent control without TXA2 synthetase, then the inhibitory rate was made 100%.
# The inhibitory rate was estimated for various concentrations of said test compounds and the concentration of 50%-inhibition (IC50) was regressively calculated. The inhibitory effect against TXA2 formation was evaluated using IC50.
# [4] = tested on: TXA2 synthesis (crude TXA2 synthetase); conditions: J. Med. Chem., 24, 1139-1149 (1981); cited from earlier work
# [5] = tested on: platelet aggregation induced by PAF; conditions: Life Science, 32, 1975-1982 (1983); cited from earlier work
# [6] = tested on: nephrotoxin-induced nephritis; test: Effect on nephrotoxin-induced nephritis (anti-GBM serum) in rats; assay type: in vivo, male SD rats; conditions: for Serum parameter BUN / Serum parameter Total cholesterol / Serum parameter triglyceride / Urinary protein One day before induction / Urinary protein Day 5 after induction / Urinary protein Day 3 after induction: oral once daily, means ± S.E.; for Serum parameter BUN: control 27.6 ± 0.9; for Serum parameter Total cholesterol: control 75 ± 3; for Serum parameter triglyceride: control 161 ± 25; for Urinary protein One day before induction: control 12.2 ± 1.1; for Urinary protein Day 5 after induction: control 72.1 ± 25.7; for Urinary protein Day 3 after induction: control 74.1 ± 25.6
# Method: Inhibitory effect of purine derivatives of the present invention against nephrotoxin-induced nephritis was evaluated by the following method.
# In the present method of evaluation, nephrotoxin-induced nephritis was induced by administration of anti-GBM (glomerular basement membrane) serum to 9-week old male SD rats. The anti-GBM serum was prepared according to a known method (see Kidney and Dialysis (Jin to Toseki) 31, Special Issue, p. 202-206 (1991), Pub. by Tokyo Igakusha Ltd., Tokyo, Japan). Anti-GBM serum was intravenously administered at an induction dose of 0.15 ml/300 g (body weight). The predetermined dose per body weight of the test compound was suspended in 0.5% CMC--Na aqueous solution and orally administered once daily for consecutive 7 days starting from one day before induction (administration of anti-GBM serum). While, control group was given the same dose of 0.5% CMC--Na aqueous solution only. During the administration period of the test compound, urinary protein was measured every 24 hrs. Seven days after the induction, blood was drawn to prepare serum sample by a conventional method, and BUN, total cholesterol and triglyceride were measured.
# Various doses of the test compounds per body weight were selected to investigate the relationship between the dose and urinary protein for the evaluation of inhibitory effect against nephrotoxin-induced nephritis.
# endotoxin induced death = test: Activity for the endotoxin (LPS) induced death in mice; assay type: in vivo, male ICR mice; conditions: for Survival rate: oral twice (30 min before and 8 hrs after LPS 15 mg/kg i.p.), within 4 days, control 50%
# Method: (Activity for the endotoxin induced death) Activity of purine derivatives of the present invention for endothelial cell damage by endotoxin was evaluated by the following method.
# In the present method of evaluation, endotoxin caused endothelial cell damage was induced by intraperitoneal administration of LPS (E. coli 055:B5) to male ICR mice. The body weight of test mice was determined beforehand and a dose of 15 mg/kg (body weight) of LPS was predetermined. After administration of LPS, the difference between the number of dead mice induced by endotoxin within 4 days and the total number of mice was divided by the total number of mice to give the survival rate. The dose per body weight of test compound was predetermined and orally administered at 30 min. before induction (LPS administration) and at 8 hrs. after the induction, twice in total. The test compounds were suspended in 0.5% CMC--Na aqueous solution.
# Various doses of the test compounds per body weight were selected to investigate the relationship between the dose and survival rate for the evaluation of inhibitory effect against endotoxin induced death. […] While, control group was given the same dose of 0.5% CMC--Na aqueous solution only. […] That is, the inhibitory effect of the compound of the present invention against endotoxin induced death was clearly observed.
# [7] = dose 30 mg/kg, day 7 after induction
# [8] = dose 100 mg/kg, day 7 after induction, *p < 0.05
Structure (SMILES),inhibition at 30 µM [1] [%],pIC50 [2],pIC50 [3],further results
"CC(C)(C)c1cc(-c2nc(OCc3ccc(C(=O)O)cc3)c3[nH]cnc3n2)cc(C(C)(C)C)c1O [Example 11, 6-(4-carboxybenzyloxy)-2-(3,5-di-tert-butyl-4-hydroxyphenyl)purine]",53,5.41,–,–
"CC(C)(C)c1cc(-c2nc(OCCCC(=O)O)c3[nH]cnc3n2)cc(C(C)(C)C)c1O [Example 8, 6-(3-carboxy-n-propoxy)-2-(3,5-di-tert-butyl-4-hydroxyphenyl)purine]",5,5.40,–,–
"CCCCOc1nc(-c2cc(C(C)(C)C)c(O)c(C(C)(C)C)c2)nc2nc[nH]c12 [Example 3, 6-n-butoxy-2-(3,5-di-tert-butyl-4-hydroxyphenyl)purine]",78,5.46,6.76,inhibitory effect against formation of TXA2 (in words) [3]: remarkable inhibitory effect against formation of TXA2
"CCCCCCOc1nc(-c2cc(C(C)(C)C)c(O)c(C(C)(C)C)c2)nc2nc[nH]c12 [Example 4, 2-(3,5-di-tert-butyl-4-hydroxyphenyl)-6-n-hexyloxypurine]",61,5.43,6.03,–
"CC(C)(C)c1cc(-c2nc(O)c3[nH]cnc3n2)cc(C(C)(C)C)c1O [Example 7, 2-(3,5-di-tert-butyl-4-hydroxyphenyl)-6-hydroxypurine]",5,5.47,–,–
"O=C(O)/C=C/c1ccc(Cn2ccnc2)cc1 [Ozagrel HCl, reference compound]",–,–,7.77,"inhibitory effect against TXA2 synthesis (literature, in words) [4]: very high inhibitory effect against TXA2 synthesis"
"CC(C)(C)c1cc(-c2nc(OCCCCCC(=O)O)c3[nH]cnc3n2)cc(C(C)(C)C)c1O [Example 9, 6-(5-carboxy-n-pentyloxy)-2-(3,5-di-tert-butyl-4-hydroxyphenyl)purine]",2,5.44,–,–
"COc1nc(-c2cc(C(C)(C)C)c(O)c(C(C)(C)C)c2)nc2nc[nH]c12 [Example 1, 2-(3,5-di-tert-butyl-4-hydroxyphenyl)-6-methoxypurine]",46,5.46,6.02,–
"CCCCCCCCCCCCCCCCCCNC(=O)OCC(COP(=O)([O-])OCC[n+]1ccsc1)OC (racemic) [CV-3988, rac-3-(N-n-octadecylcarbamoyl)-2-methoxypropyl-2-thiazolium ethyl phosphate, reference compound]",78,–,–,"anti-PAF activity (literature, in words) [5]: high anti-PAF activity"
"CC(C)(C)c1cc(-c2nc(OCCCCCCCC(=O)O)c3[nH]cnc3n2)cc(C(C)(C)C)c1O [Example 10, 6-(7-carboxy-n-heptyloxy)-2-(3,5-di-tert-butyl-4-hydroxyphenyl)purine]",4,5.43,–,–
"CC(C)(C)c1cc(-c2nc(OCCc3ccccc3)c3[nH]cnc3n2)cc(C(C)(C)C)c1O [Example 6, 2-(3,5-di-tert-butyl-4-hydroxyphenyl)-6-phenethyloxypurine]",35,5.46,6.17,–
"CCCOc1nc(-c2cc(C(C)(C)C)c(O)c(C(C)(C)C)c2)nc2nc[nH]c12 [Example 2, 2-(3,5-di-tert-butyl-4-hydroxyphenyl)-6-n-propoxypurine]",57,5.47,6.80,"inhibitory effect against formation of TXA2 (in words) [3]: remarkable inhibitory effect against formation of TXA2; Serum parameter BUN [6, 7]: 26.9 ± 0.8 mg/dL; Serum parameter Total cholesterol [6, 7]: 72 ± 6 mg/dL; Serum parameter triglyceride [6, 7]: 125 ± 20 mg/dL; Urinary protein One day before induction ([6]; dose 30 mg/kg): 10.5 ± 0.8 mg/day; Urinary protein Day 5 after induction ([6]; dose 30 mg/kg): 52.8 ± 16.7 mg/day; Urinary protein Day 3 after induction ([6]; dose 30 mg/kg): 49.0 ± 16.7 mg/day; Serum parameter triglyceride ([6]; dose 100 mg/kg, day 7 after induction, **p < 0.01): 60 ± 4 mg/dL; Serum parameter BUN [6, 8]: 23.6 ± 1.6 mg/dL; Serum parameter Total cholesterol [6, 8]: 66 ± 2 mg/dL; Urinary protein Day 5 after induction ([6]; dose 100 mg/kg, *p < 0.05): 14.3 ± 1.0 mg/day; Urinary protein Day 3 after induction ([6]; dose 100 mg/kg, *p < 0.05): 14.5 ± 1.7 mg/day; Urinary protein One day before induction ([6]; dose 100 mg/kg): 12.2 ± 2.5 mg/day; inhibitory effect against increase of urinary protein (in words) ([6]; oral, 30 and 100 mg/kg): dose dependent inhibitory effect against increase of urinary protein; concentrations of serum BUN, total cholesterol and triglyceride (in words) ([6]; oral, 30 and 100 mg/kg, day 7 after induction): dose dependent decrease; Survival rate (endotoxin induced death; dose 100 mg/kg): 68%; Survival rate (endotoxin induced death; dose 300 mg/kg): 75%; effect on survival / endotoxin induced death (in words) (endotoxin induced death; oral, 100 and 300 mg/kg): increase in survival rate with the increase of dose was clearly observed"
"CCCCCCCCOc1nc(-c2cc(C(C)(C)C)c(O)c(C(C)(C)C)c2)nc2nc[nH]c12 [Example 5, 2-(3,5-di-tert-butyl-4-hydroxyphenyl)-6-n-octyloxypurine]",15,5.27,–,–

# — patent publication US5602140A, “Purine derivatives and suppressants for inflammatory diseases” (Japan Energy Corporation, priority 1994, dated 1997)
